The subject of experiment [1] is respiratory syncytial virus (RSV). The experiment in a line: RSV plaque (PFU) assay, sample added to Vero cells simultaneously with RSV (Example 6). The class given is cell-based. The protocol:
The ability of purified sulfated octasaccharide, in solution, to block respiratory syncytial virus (RSV) infection of Vero cells was examined. The blocking ability of purified sulfated octasaccharide was compared to heparin sodium.
Purified sulfated octasaccharide was prepared according to the method of Example 1. Vero cells were seeded into 24-well plates and incubated at 37° C. for 24 hours to form monolayers. Samples were diluted to the desired concentration in sterile DMEM in a final volume of 225 μl. Full-length heparin sodium (the starting material) or purified HSocta was added to Vero cells simultaneously with RSV that was diluted to 300 PFU/mL then incubated at 37° C. for 30 min. Vero cells were washed with PBS and samples were incubated at 37° C. for 1 hour on Vero cells and then washed with PBS and incubated with DMEM containing 10% FBS and incubated at 37° C. for 72 h. Cells were fixed and stained with anti-glycoprotein F and anti-glycoprotein G antibodies (MAB858-2 and MAB8262F Millipore, Billerica, Mass.). Plaques were visualized with anti-mouse horseradish peroxidase-conjugated secondary antibody (BD Biosciences, San Jose, Calif.) and developed with peroxidase substrate kit (Vector Laboratories, Burlingame, Calif.). Viral plaques in the Vero monolayer were counted and the PFU/mL was determined.

The test system of a further experiment is RSV strain A2. Description: RSV plaque assay on Vero cell monolayers, sample pre-mixed with RSV strain A2 (Example 7). In kind it is cell-based, respiratory syncytial virus. Conditions: in solution; Vero cells; 200 PFU RSV strain A2, 30 min at 37° C. pre-mix; read-out: concentration achieving a 50% reduction in RSV infectivity. How it is done: The ability of liposomes to block RSV infection of Vero cells was examined. The blocking ability of liposomes was compared to purified sulfated octasaccharide, in solution, and a control, i.e., a liposome without sulfated octasaccharides. Liposomes were prepared using the method described in Example 3. […] Purified sulfated octasaccharide as described in Example 1, in solution or incorporated into liposomes, at the concentrations indicated were assessed using a plaque assay. Confluent Vero cell monolayers were formed by adding 1×10^6 Vero cells to wells of a 12-well plate then incubating the cells in 1 ml Dulbecco's Modified Eagle Medium (DMEM) with 4 mM glutamine and 10% fetal bovine serum as growth medium. The medium was removed from the cells. Sulfated octasaccharide, liposomes, or buffer at the concentrations indicated (see FIG. 5) were mixed with 200 PFU RSV strain A2 in 150 mM phosphate buffered saline for 30 min at 37° C. and the mixture was added to the monolayer surface. After one hour, the mixtures were removed, and the cells were washed and overlaid with 1 ml plaquing medium (DMEM with 4 mM glutamine, 2% FBS, and 0.4% agarose). After 5 to 7 days incubation at 37° C., the number of RSV plaques was counted. Liposome treated virus was compared to untreated virus, which represented 100% infectivity.

For “GlcUA(2S)-GlcNS(6S)-Ido(2S)-GlcNS(6S)-Ido(2S)-GlcNS(6S)-Ido(2S)-GlcNS(6S) [purified sulfated octasaccharide]”, the “blocking PFU formation” value in experiment [1] (at 1 μg/ml or higher, RSV, Vero cells (results text says MDCK cells)) is listed as “roughly 50%”. Also, in experiment [1] (in solution, results text says MDCK cells), the “anti-RSV properties, ability to block infection of cells” value is “strong anti-RSV properties”. The IC50 with RSV strain A2 is around 500 µM.

The record behind these values is patent publication US20150158956A1, “MULTIVALENT ANTIVIRAL COMPOSITIONS, METHODS OF MAKING, AND USES THEREOF” (The Charles Stark Draper Laboratory, Inc., priority 2013, published 2015).
